The source of these data is patent publication US5614519A, “(1-(2,3 or 4-N-morpholinoalkyl)-imidazol-4-yl)-benizimidazol-1-yl-methyl]-biphenyls useful as angiotensin-II antagonists” (Karl Thomae GmbH, priority 1991, dated 1997).

In the assay the test system is conscious renally hypertensive rats. Description: Effect after oral administration in conscious renally hypertensive rats. The following applies: 10 mg/kg. In kind it is in vivo, rat. Here is the method:
In addition, compounds D, E, F, G, H, M and O were tested on conscious renally hypertensive rats for their effect after oral administration using methods known from the literature.
As to `CCCc1nc2c(C)cc(-c3nc4ccccc4n3C)cc2n1Cc1ccc(-c2ccccc2C(=O)O)cc1` [Substance D, 4'-[[2-n-propyl-4-methyl-6-(1-methylbenzimidazol-2-yl)-benzimidazol-1-yl]-methyl]-biphenyl-2-carboxylic acid], the hypotensive effect result is “hypotensive effect”.

In the case of `CCCc1nc2c(C)cc(-c3nc4ccccc4n3C)cc2n1Cc1ccc(-c2ccccc2-c2nnn[nH]2)cc1` [Substance E, 4'-[[2-n-propyl-4-methyl-6-(1-methylbenzimidazol-2-yl)-benzimidazol-1-yl]-methyl]-2-(1H-tetrazol-5-yl)-biphenyl], the hypotensive effect result is listed as “hypotensive effect”.

Consider `CCCc1nc2c(C)cc(N3Cc4ccccc4C3=O)cc2n1Cc1ccc(-c2ccccc2-c2nnn[nH]2)cc1` [Substance F, 4'-[[2-n-propyl-4-methyl-6-(1-oxo-isoindolin-2-yl)-benzimidazol-1-yl]-methyl]-2-(1H-tetrazol-5-yl)-biphenyl], for which the hypotensive effect result is given as “hypotensive effect”. The result for `CCCc1nc2c(C)cc(N3CCCCS3(=O)=O)cc2n1Cc1ccc(-c2ccccc2-c2nn[nH]n2)cc1` [Substance G, 4'-[[2-n-propyl-4-methyl-6-(butanesultam-1-yl)-benzimidazol-1-yl]-methyl]-2-(1H-tetrazol-5-yl)-biphenyl] reads “hypotensive effect”.

With `CCCCc1nc2c(C)cc(N3C(=O)C(C)=C(C)C3=O)cc2n1Cc1ccc(-c2ccccc2C(=O)O)cc1` [Substance H, 4'-[[2-n-butyl-6-(2,3-dimethylmaleic acid imino)-4-methyl-benzimidazol-1-yl]-methyl]-biphenyl-2-carboxylic acid semihydrate], the hypotensive effect entry was “hypotensive effect”. Consider `Cc1cc(-c2nc3ccccc3n2C)cc2c1nc(C1CC1)n2Cc1ccc(-c2ccccc2C(=O)O)cc1` [Substance M, 4'-[(2-cyclopropyl-4-methyl-6-(1-methylbenzimidazol-2-yl)-benzimidazol-1-yl)-methyl]-biphenyl-2-carboxylic acid], for which the hypotensive effect result is on record as “hypotensive effect”. For `CCCc1nc2c(C)cc(-c3cn4cccnc4n3)cc2n1Cc1ccc(-c2ccccc2-c2nnn[nH]2)cc1` [Substance O, 4'-[(2-n-propyl-4-methyl-6-(imidazo[1,2-a]pyrimidin-2-yl)-benzimidazol-1-yl)-methyl]-2-(1H-tetrazol-5-yl)-biphenyl], the hypotensive effect entry was “hypotensive effect”.
